Assay results reported in patent publication EP4559908A1, “HETEROARYL DERIVATIVE COMPOUND AND USE THEREOF” (S2CBio Inc., priority 2022, dated 2024).

Molecular target: T1, human ANO6 (variant 5) (Homo sapiens, UniProt Q4KMQ2)
T1 construct: expressed in transfected cells; host or cells: Fischer rat thyroid (FRT) cells
T1 sequence (Q4KMQ2 1-931 isoform Q4KMQ2-2): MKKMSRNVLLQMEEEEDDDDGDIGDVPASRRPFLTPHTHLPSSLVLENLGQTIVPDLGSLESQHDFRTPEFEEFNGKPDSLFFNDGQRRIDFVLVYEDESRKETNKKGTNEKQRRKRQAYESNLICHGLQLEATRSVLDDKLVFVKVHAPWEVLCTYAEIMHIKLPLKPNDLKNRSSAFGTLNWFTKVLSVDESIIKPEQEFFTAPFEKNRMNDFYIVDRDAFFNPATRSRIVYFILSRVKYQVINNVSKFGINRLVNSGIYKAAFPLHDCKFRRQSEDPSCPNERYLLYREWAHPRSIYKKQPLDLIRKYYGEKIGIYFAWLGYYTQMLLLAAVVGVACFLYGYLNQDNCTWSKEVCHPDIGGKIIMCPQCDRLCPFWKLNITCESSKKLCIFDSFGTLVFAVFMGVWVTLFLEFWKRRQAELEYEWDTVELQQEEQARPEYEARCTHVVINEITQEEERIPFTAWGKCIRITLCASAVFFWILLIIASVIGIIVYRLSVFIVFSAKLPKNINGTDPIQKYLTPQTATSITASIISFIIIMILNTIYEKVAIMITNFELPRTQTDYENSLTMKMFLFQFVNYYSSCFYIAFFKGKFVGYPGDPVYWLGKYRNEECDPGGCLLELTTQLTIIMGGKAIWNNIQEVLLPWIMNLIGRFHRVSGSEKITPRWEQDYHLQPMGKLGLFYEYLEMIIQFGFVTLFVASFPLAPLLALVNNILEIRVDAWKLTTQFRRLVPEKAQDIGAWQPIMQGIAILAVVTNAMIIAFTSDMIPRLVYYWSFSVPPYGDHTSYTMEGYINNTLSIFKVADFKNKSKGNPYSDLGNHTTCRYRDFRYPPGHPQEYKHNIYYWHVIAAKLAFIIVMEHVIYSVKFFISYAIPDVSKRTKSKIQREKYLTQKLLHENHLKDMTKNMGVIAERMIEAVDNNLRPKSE
Experiment: Lact C2 assay (measuring phosphatidylserine externalization scramblase function)
Assay type: cell-based
Conditions: FRT, FRT cells expressing human ANO6 (variant 5), ionomycin 10 µM, Lact-C2-GFP fluorescence, average of three tests; for inhibition at 1 µM: compound 1 µM, read-out: % Inhibition 1 µM; for inhibition at 0.05 µM: compound 50 nM, read-out: % Inhibition 50 nM; for inhibition at 0.1 µM: compound 100 nM
In short: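 Cells were pretreated 10 min with compound (50 nM, 100 nM, 1 µM; 1% DMSO), then given 10 µM ionomycin for 10 min. Surface phosphatidylserine was stained with 500 nM Lact-C2-GFP (10 min, 37 °C), fixed and imaged. Inhibition was scaled between untreated (100%) and ionomycin-alone (0%) wells.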

Structure (SMILES): N#Cc1ccc2nc(-c3cccc(Nc4ccc(-c5cccnn5)cc4)c3)[nH]c2c1 [Example 231, 2-(3-((4-(pyridazin-3-yl)phenyl)amino)phenyl)-1H-benzo[d]imidazole-6-carbonitrile]
- inhibition at 1 µM: > 60%

Structure (SMILES): c1cc(Nc2ccc(-c3ncco3)cc2)cc(-c2nc3ccccc3[nH]2)c1 [Example 165, 3-(1H-benzo[d]imidazol-2-yl)-N-(4-oxazol-2-ylphenyl)aniline]
- inhibition at 0.05 µM: 30 to 60%
- inhibition at 1 µM: > 60%

Structure (SMILES): FC(F)Oc1ccc2nc(-c3cccc(Nc4ncc(-c5cccnn5)cn4)c3)[nH]c2c1 [Example 287, N-(3-(6-(difluoromethoxy)-1H-benzo[d]imidazol-2-yl)phenyl)-5-(pyridazin-3-yl)pyrimidin-2-amine]
- inhibition at 1 µM: 30 to 60%

Structure (SMILES): FC(F)(F)c1ccc2nc(-c3cccc(Nc4cnc(-c5ccccn5)cn4)c3)[nH]c2c1 [Example 302, 5-(pyridin-2-yl)-N-(3-(6-(trifluoromethyl)-1H-benzo[d]imidazol-2-yl)phenyl)pyrazin-2-amine]
- inhibition at 0.05 µM: > 60%
- inhibition at 1 µM: > 60%

Structure (SMILES): FC(F)(F)c1cc2[nH]c(-c3cccc(Nc4ccc(-c5cccnn5)cc4)c3)nc2cn1 [Example 79, N-(4-(pyridazin-3-yl)phenyl)-3-(6-(trifluoromethyl)-1H-imidazolo[4,5-c]pyridin-2-yl)aniline]
- inhibition at 0.05 µM: > 60%

Structure (SMILES): FC(F)(F)Oc1ccc2nc(-c3cccc(Nc4ccc(-c5ccccc5)nn4)c3)[nH]c2c1 [Example 6, 6-phenyl-N-(3-(6-(trifluoromethoxy)-1H-benzo[d]imidazol-2-yl)phenyl)pyridazin-3-amine]
- inhibition at 0.1 µM: > 60%
- inhibition at 1 µM: > 60%

Structure (SMILES): FC(F)(F)c1ccc2[nH]c(-c3cccc(Nc4ncc(-c5ccccn5)cn4)c3)nc2n1 [Example 244, 5-(pyridin-2-yl)-N-(3-(5-(trifluoromethyl)-1H-imidazo[4,5-b]pyridin-2-yl)phenyl)pyrimidin-2-amine]
- inhibition at 0.05 µM: 30 to 60%
- inhibition at 1 µM: > 60%

Structure (SMILES): Fc1ccc(-c2ccc(Nc3cccc(-c4nc5ccccc5[nH]4)c3)cc2)nn1 [Example 265, 3-(1H-benzo[d]imidazol-2-yl)-N-(4-(6-fluoropyridazin-3-yl)phenyl)aniline]
- inhibition at 0.05 µM: > 60%

Structure (SMILES): FC(F)(F)Oc1cc2nc(-c3cccc(Nc4ncc(-c5cccnn5)cn4)c3)[nH]c2cc1Cl [Example 120, N-[3-[6-chloro-5-(trifluoromethoxy)-1H-benzo[d]imidazol-2-yl]phenyl]-5-pyridazin-3-yl-pyrimidin-2-amine]
- inhibition at 0.05 µM: > 60%
- inhibition at 1 µM: > 60%

Structure (SMILES): c1ccc(COc2ccc3nc(-c4cccc(Nc5ccc(-c6cccnn6)cc5)c4)[nH]c3c2)cc1 [Example 222, 3-(6-(benzyloxy)-1H-benzo[d]imidazol-2-yl)-N-(4-(pyridazin-3-yl)phenyl)aniline]
- inhibition at 0.05 µM: > 60%
- inhibition at 1 µM: > 60%

Structure (SMILES): FC(F)(F)c1cccc2nc(-c3cccc(Nc4ncc(-c5cccnn5)cn4)c3)[nH]c12 [Example 289, 5-(pyridazin-3-yl)-N-(3-(7-(trifluoromethyl)-1H-benzo[d]imidazol-2-yl)phenyl)pyrimidin-2-amine]
- inhibition at 1 µM: 30 to 60%

Structure (SMILES): N#Cc1ccc(Nc2cccc(-c3nc4ccc(C(F)(F)F)cc4[nH]3)c2)cc1 [Example 315, 4-((3-(6-(trifluoromethyl)-1H-benzo[d]imidazol-2-yl)phenyl)amino)benzonitrile]
- inhibition at 1 µM: > 60%

Structure (SMILES): FC(F)(F)c1ccc2nc(-c3cccc(Nc4ncc(-c5ccccn5)cn4)c3)[nH]c2c1 [Example 83, 5-(2-pyridyl)-N-[3-[6-(trifluoromethyl)-1H-benzo[d]imidazol-2-yl]phenyl]pyrimidin-2-amine]
- inhibition at 0.05 µM: > 60%

Structure (SMILES): Fc1cc(F)c2[nH]c(-c3cccc(Nc4ncc(-c5cccnn5)cn4)c3)nc2c1 [Example 292, N-(3-(5,7-difluoro-1H-benzo[d]imidazol-2-yl)phenyl)-5-(pyridazin-3-yl)pyrimidin-2-amine]
- inhibition at 1 µM: 30 to 60%

Structure (SMILES): FC(F)(F)c1ccc2nc(-c3ccnc(Nc4ncc(-c5ccccn5)cn4)c3)[nH]c2c1 [Example 306, 5-(pyridin-2-yl)-N-(4-(6-(trifluoromethyl)-1H-benzo[d]imidazol-2-yl)pyridin-2-yl)pyrimidin-2-amine]
- inhibition at 1 µM: 30 to 60%

Structure (SMILES): Fc1cc2nc(-c3cccc(Nc4cnc(-c5ccccn5)cn4)c3)[nH]c2cc1F [Example 298, N-(3-(5,6-difluoro-1H-benzo[d]imidazol-2-yl)phenyl)-5-(pyridin-2-yl)pyrazin-2-amine]
- inhibition at 0.05 µM: 30 to 60%
- inhibition at 1 µM: > 60%

Structure (SMILES): Clc1cc2[nH]c(-c3cccc(Nc4ccc(-c5ccncn5)cc4)c3)nc2cn1 [Example 117, 3-(6-chloro-1H-imidazo[4,5-c]pyridin-2-yl)-N-(4-pyrimidin-4-ylphenyl)aniline]
- inhibition at 1 µM: > 60%

Structure (SMILES): c1cc(Nc2ccc(-c3ccncn3)nn2)cc(-c2nc3ccccc3[nH]2)c1 [Example 257, N-(3-(1H-benzo[d]imidazol-2-yl)phenyl)-6-(pyrimidin-4-yl)pyridazin-3-amine]
- inhibition at 1 µM: 30 to 60%

Structure (SMILES): FC(F)(F)c1ccc2[nH]c(-c3cccc(Nc4ccc(-c5cccnn5)cc4)c3)nc2n1 [Example 235, N-(4-(pyridazin-3-yl)phenyl)-3-(5-(trifluoromethyl)-1H-imidazo[4,5-b]pyridin-2-yl)aniline]
- inhibition at 0.05 µM: 30 to 60%
- inhibition at 1 µM: > 60%

Structure (SMILES): FC(F)(F)Oc1cc2[nH]c(-c3cccc(Nc4ccc(-c5cccnn5)cc4)c3)nc2cn1 [Example 232, N-(4-(pyridazin-3-yl)phenyl)-3-(6-(trifluoromethoxy)-1H-imidazo[4,5-c]pyridin-2-yl)aniline]
- inhibition at 0.05 µM: > 60%
- inhibition at 1 µM: > 60%

Structure (SMILES): CC(C)(C)c1ccc2nc(-c3cccc(Nc4ccc(-c5cccnn5)cc4)c3)[nH]c2c1 [Example 107, 3-(6-tert-butyl-1H-benzo[d]imidazol-2-yl)-N-(4-pyridazin-3-ylphenyl)aniline]
- inhibition at 0.05 µM: 30 to 60%
- inhibition at 1 µM: > 60%

Structure (SMILES): Fc1cccnc1-c1ccc(Nc2cccc(-c3nc4ccc(C(F)(F)F)cc4[nH]3)c2)cc1 [Example 251, N-(4-(3-fluoropyridin-2-yl)phenyl)-3-(6-(trifluoromethyl)-1H-benzo[d]imidazol-2-yl)aniline]
- inhibition at 1 µM: > 60%

Structure (SMILES): COC(=O)c1ccc2nc(-c3cccc(Nc4ccc(-c5ncccn5)cc4)c3)[nH]c2c1 [Example 78, methyl 2-(3-((4-(pyrimidin-2-yl)phenyl)amino)phenyl)-1H-benzo[d]imidazol-6-carboxylate]
- inhibition at 1 µM: > 60%

Structure (SMILES): c1cnc(-c2ccc(Nc3cccc(-c4nc5ccccc5[nH]4)c3)cc2)nc1 [Example 26, N-[3-(1H-benzo[d]imidazol-2-yl)phenyl]-4-(pyrimidin-2-yl)aniline]
- inhibition at 0.05 µM: > 60%
- inhibition at 0.1 µM: > 60%
- inhibition at 1 µM: > 60%

Structure (SMILES): Fc1ccnc(-c2ccc(Nc3cccc(-c4nc5ccc(C(F)(F)F)cc5[nH]4)c3)cc2)c1 [Example 305, N-(4-(4-fluoropyridin-2-yl)phenyl)-3-(6-(trifluoromethyl)-1H-benzo[d]imidazol-2-yl)aniline]
- inhibition at 0.05 µM: 30 to 60%
- inhibition at 1 µM: > 60%

Structure (SMILES): FC(F)(F)c1ccccc1-c1ccc(Nc2cccc(-c3nc4ccccc4[nH]3)c2)cc1 [Example 272, N-(3-(1H-benzo[d]imidazol-2-yl)phenyl)-2'-(trifluoromethyl)-[1,1'-biphenyl]-4-amine]
- inhibition at 1 µM: > 60%

Structure (SMILES): c1cc(Nc2ccc(-c3cccnn3)cc2)cc(-c2nc3ncccc3[nH]2)c1 [Example 219, 3-(1H-imidazo[4,5-b]pyridin-2-yl)-N-(4-(pyridazin-3-yl)phenyl)aniline]
- inhibition at 1 µM: > 60%

Structure (SMILES): COc1ccc2nc(-c3cccc(Nc4ncc(-c5cccnn5)cn4)c3)[nH]c2c1 [Example 108, N-[3-(6-methoxy-1H-benzo[d]imidazol-2-yl)phenyl]-5-pyridazin-3-yl-pyrimidin-2-amine]
- inhibition at 1 µM: 30 to 60%

Structure (SMILES): FC(F)(F)c1cc2nc(-c3cccc(Nc4ccc(-c5ccccc5)nn4)c3)[nH]c2cc1Br [Example 9, N-{3-[6-bromo-5-(trifluoromethyl)-1H-benzo[d]imidazol-2-yl]phenyl}-6-phenylpyridazin-3-amine]
- inhibition at 0.05 µM: > 60%
- inhibition at 0.1 µM: > 60%
- inhibition at 1 µM: > 60%
